Patent publication EP0172632B1, “Benzopyrano[4,3,2-cd]indazole compounds, processes for their production and pharmaceutical compositions comprising the compounds” (WARNER-LAMBERT COMPANY, priority 1984, dated 1986)
Values after ≈ are worked out from the molar mass of the structure shown. Counter-ions that a name gives are not always drawn. Like-named read-outs stand apart in the source and are kept apart here.

Legend:
L1210 cells = test: L1210 in vitro cell growth inhibition; assay type: cell-based; conditions: Mus musculus, 72 h; L1210 murine leukemia cells, three days incubation, 50% inhibition of growth; read-out: L1210 in vitro ID50
Method: Another test protocol uses L1210 cells, a murine leukemia cell line, grown in RPMI 1640 supplemented with 5% fetal bovine serum and gentamicin ([…]). Drug dilutions are prepared in the appropriate solvent and 20 µl of each dilution are added to 24-well Linbro tissue culture plates, followed by the addition of 2.0 ml of cell suspension containing 3 x 10^4 cells per ml. Solvent and medium controls are included in each test. After incubation at 37°C for three days in 5% CO2, the contents of each well are removed and the cells counted in a ZBI Counter counter. Percent growth are calculated relative to the controls and the levels of drug activity are expressed as ID50 in moles per liter.

[1] = system: lymphocytic leukemia P388; test: in vivo lymphocytic leukemia P388 test; conditions: Mus musculus, P388, ip, 120 h, mice, survival time treated/control, read-out: P388 in vivo T/C×100; for response vs control in vivo at 25 mg/kg: Dose 25 mg/kg intraperitoneally once daily for five days; for response vs control in vivo at 50 mg/kg: Dose 50 mg/kg intraperitoneally once daily for five days; for response vs control in vivo at 100 mg/kg: Dose 100 mg/kg intraperitoneally once daily for five days; for response vs control in vivo at 12.5 mg/kg: Dose 12.5 mg/kg intraperitoneally once daily for five days; for response vs control in vivo at 6.25 mg/kg: Dose 6.25 mg/kg intraperitoneally once daily for five days
Method: Another test protocol is the in vivo lymphocytic leukemia P388 test. The animals used are either male or female CD2F, mice. There are six or seven animals per test group. The tumor transplant is by intraperitoneal injection of dilute ascitic fluid containing cells of lymphocytic leukemia P388. The test compounds are administered intraperitoneally once daily for five consecutive days at various doses following tumor inoculation. The animals are weighed and survivors are recorded on a regular basis for 30 days. A compound is designated "toxic" if, at a given dose, all animals died prior to four days after the first injection of drug. A ratio of survival time for treated (T)/control (C) animals is calculated. A criterion for efficacy is a ratio T/C times 100 greater than or equal to 125. See Cancer Chemotherapy Reports, Part 3, 3, 1 (1972) for a comprehensive discussion of the protocol.

[2] = system: Corynebacterium Sp. ATCC 21698; test: in vitro antibacterial (ABMF) microdilution susceptibility test; assay type: cell-based; conditions: ATCC21698, Mueller-Hinton broth microdilution, 37°C, 16-24 hours, read-out: ABMF Minimal Inhibitory Concentration (µ/ml) Coryn. sp.
Source text: (§1) Still another test protocol is the in vitro antibacterial (ABMF) test which is a recognized standard microdilution susceptibility procedure in Mueller-Hinton broth against Gram-positive and Gram-negative bacterial test organisms. The procedure is a modification of a state-of-the-art procedure reported in Manual of Clinical Microbiology, Lennette, E. H., ed., by Barry, A. L. and C. Thornsberry at pages 463-474 and by Gavan, T. L. and A. L. Barry at pages 459―462, American Society for Microbiology, Washington, 1980.
(§2) In the test, a given bacterial culture is used to inoculate individual test wells of microdilution trays containing growth medium and test compound, the latter in a microdilution series: 1000, 333.111, 37,12, 4, 1.4, and 0.46 micrograms per milliliter. […] For convenience, values are reported for Escherichia coli, Corynebacterium Sp. ATCC 21698, Salmonella typhimurium, Streptococcus pneumoniae, and Rhodotorula aurantiaca.

Escherichia coli = test: as above; assay type: cell-based; conditions: read-out: ABMF Minimal Inhibitory Concentration (µ/ml) E. coli
Source text: as §1, §2

Rhodotorula aurantiaca = test: as above; assay type: cell-based; conditions: Buckleyzyma aurantiaca, read-out: ABMF Minimal Inhibitory Concentration (µ/ml) R. aurant
Source text: as §1, §2

Salmonella typhimurium = test: as above; assay type: cell-based; conditions: Salmonella enterica, Mueller-Hinton broth microdilution, 37°C, 16-24 hours, read-out: ABMF Minimal Inhibitory Concentration (µ/ml) S. typh.
Source text: as §1, §2

Streptococcus pneumoniae = test: as above; assay type: cell-based; conditions: Mueller-Hinton broth microdilution, 37°C, 16-24 hours, read-out: ABMF Minimal Inhibitory Concentration (µ/ml) S. pneum.
Source text: as §1, §2

[3] = Mueller-Hinton broth microdilution, 37°C, 16-24 hours

Row | Compound | IC50 (L1210 cells) [nM] | response vs control in vivo at 25 mg/kg [1] [%] | response vs control in vivo at 50 mg/kg [1] [%] | response vs control in vivo at 100 mg/kg [1] [%] | MIC [2] [µg/mL] | MIC (Escherichia coli; [3]) [µg/mL] | MIC (Rhodotorula aurantiaca) [µg/mL] | MIC (Salmonella typhimurium) [µg/mL] | MIC (Streptococcus pneumoniae) [µg/mL] | response vs control in vivo at 12.5 mg/kg [1] [%] | MIC (Escherichia coli) [µg/mL] | MIC (Rhodotorula aurantiaca; [3]) [µg/mL] | response vs control in vivo at 200 mg/kg ([1]; Dose 200 mg/kg intraperitoneally once daily for five days) [%] | response vs control in vivo at 6.25 mg/kg [1] [%]
1 | CCN(CC)CCn1nc2c3c(c([N+](=O)[O-])ccc31)Oc1ccc(OC)cc1-2 [Example 5, N,N-Diethyl-9-methoxy-5-nitro-2H-[1]benzopyrano-[4,3,2-cd]indazole-2-ethanamine, methanesulfonate (1: 1)] | 920 | 126 | 148 | 192 | < 0.46 | < 0.46 | 111 | 111 | < 0.46 | – | – | – | – | –
2 | CCN(CC)CCn1nc2c3c(c(NCCN)ccc31)Oc1ccc(OC)cc1-2 [Example 6, 1-[2-[2-(Diethylamino)ethyl]-9-methoxy-2H-[1]benzopyrano-[4,3,2-cd]ndazole-5-yl]-1,2-ethanediamine, trihydrobromide] | 1100 | 145 | – | – | 4.1 | – | – | 111 | 12.3 | 154 | 111 | 333 | – | –
3 | COc1ccc2c(c1)-c1nn(CCCN(C)C)c3ccc([N+](=O)[O-])c(c13)O2 [Example 7, 9-Methoxy-N,N-dimethyl-5-nitro-2H-[1]benzopyrano[4,3,2-cd]indazole-2-propanamine, methanesulfonate (1:1.17)] | 580 | – | 134 | 159 | < 0.46 | 4.1 | – | 111 | < 0.46 | – | – | 1000 | 218 | –
4 | COc1ccc2c(c1)-c1nn(CCN3CCCC3)c3ccc([N+](=O)[O-])c(c13)O2.Cl [Example 8, 9-Methoxy-5-nitro-2-[2-(1-pyrrolidinyl)ethyl]-2H-[1]benzopyrano[4,3,2-cd]indazole, monohydrochloride] | 2000 | – | – | – | < 0.46 | > 1000 | – | 37 | < 0.46 | – | – | 111 | – | –
5 | COc1ccc2c(c1)-c1nn(CCN3CCCC3)c3ccc(N)c(c13)O2 [Example 9, 9-Methoxy-2-[2-(1-pyrrolidinyl)ethyl]-2H-[1]benzopyrano[4,3,2-cd]indazole-2-amine, monohydrochloride] | 360 | – | – | – | 4.1 | 12.3 | – | 111 | 4.1 | – | – | 333 | – | –
6 | O=[N+]([O-])c1ccc2c3c(nn2CCN2CCCC2)-c2cc(O)ccc2Oc13 [Example 10, 5-Nitro-2[2-(1-pyrrolidinyl)ethyl]-2H-[1]benzopyrano[4,3,2-cd]indazole-9-ol, methanesulfonate] | 3.5 | – | – | – | < 0.46 | > 1000 | – | 1.4 | < 0.46 | – | – | 1000 | – | –
7 | CN(C)CCCn1nc2c3c(c([N+](=O)[O-])ccc31)Oc1ccc(O)cc1-2.CS(=O)(=O)O [Example 11, 9-Hydroxy-N,N-dimethyl-5-nitro-2H-[1]benzopyrano[4,3,2-cd]indazole-2-propanamine, methanesulfonate (1:1)] | 15 | 226 | – | – | < 0.46 | < 0.46 | – | 12.3 | < 0.46 | 200 | – | 1000 | – | 150
8 | CCN(CC)CCn1nc2c3c(c(N)ccc31)Oc1ccc(O)cc1-2.Cl.Cl [Example 12, 5-Amino-N,N-diethyl-9-hydroxy-2H-[1]benzopyrano[4,3,2-cd]indazole-2-ethanamine, dihydrochloride] | 71 | 192 | – | – | 12.3 | – | – | 111 | 12.3 | 201 | 111 | > 1000 | – | 167
9 | CCN(CC)CCn1nc2c3c(c(NC(=O)CNCCO)ccc31)Oc1ccc(O)cc1-2.Cl [Example 13, N-[2-[2-(Diethylamino)ethyl]-9-hydroxy-2H-[1]benzopyrano[4,3,2-cd]indazole-5-yl]-2-[(2-hydroxyethyl)-amino]acetamide, hydrochloride] | 5.7 | 198 | 227 | 272 | 333 | 111 | – | > 1000 | 333 | – | – | > 1000 | – | –
10 | CCN(CC)CCn1nc2c3c(c(NCCNCCO)ccc31)Oc1ccc(O)cc1-2 [Example 14] | 48 | – | – | – | 33 (≈ 77.5 µM) | 11 (≈ 25.8 µM) | – | > 33 | 11 (≈ 25.8 µM) | 272 | – | > 33 | – | 236
11 | O=[N+]([O-])c1ccc2c3c(nn2CCNCCO)-c2cc(O)ccc2Oc13 [Example 15, 2-[2-[(2-Hydroxyethyl)amino]ethyl]-5-nitro-2H-[1]benzopyrano[4,3,2-cd]indazol-9-01, hydrochloride] | 15 | 218 | 230 | – | 1.4 | > 0.46 | – | 12.3 | 1.4 | 190 | – | 1000 | – | –
12 | Cl.Nc1ccc2c3c(nn2CCNCCO)-c2cc(O)ccc2Oc13 [Example 16, 5-Amino-2-[2-[(2-hydroxyethyl)amino]ethyl]-2H-[1]benzopyrano[4,3,2-cd]indazol-9-ol, hydrochloride] | 120 | 260 | – | – | 12.3 | 4.1 | – | 37 | 37 | 200 | – | > 1000 | – | 165
13 | CCN(CC)CCn1nc2c3c(c([N+](=O)[O-])ccc31)Oc1cc(OC)ccc1-2 [Example 19, 5-Nitro-2-[2-(diethylamino)ethyl]-8-methoxy-2H [1]benzopyrano[4,3,2-cd]indazol, hydrochloride] | 2200 | – | – | – | < 0.46 | < 0.46 | – | 37 | < 0.46 | – | – | 333 | – | –
14 | CCN(CC)CCn1nc2c3c(c([N+](=O)[O-])ccc31)Oc1cc(O)ccc1-2 [Example 20, 5-Nitro-2-[2-(diethylamino)ethyl]-2H-[1]benzopyrano[4,3,2-cd]indazol-8-0l, hydrochloride] | 870 | – | – | – | < 0.46 | 1.4 | – | 12.3 | < 0.46 | – | – | > 1000 | – | –
